Assay results taken from patent US12685315B2, “Herbicidal combination” (UPL do Brasil Industria e Comercio de Insumos Agropecuarios …, priority 2019, dated 2026).

Key:
Eleusine indica = test: Field trial of triple mixes of amicarbazone, pre and post-emergence weed control; type: in vivo; conditions: Table 10, dose g ai/ha: Amicarbazone 75, Mesotrione 38, Ametryn 250, mix AMC + AME + MST 75 + 38 + 250
Method: (§1) Field trials were done to evaluate the efficacy and synergism of the triple mixes of amicarbazone with other herbicides for the control of weeds in pre and post-emergence application.
(§2) The composition of the present invention was applied. This test was performed for species of weeds: Grasses namely BRADC=Brachiaria decumbens, CCHEC=Cenchrus echinatus, ELEIN=Eleusine indica, TRCIN=Digitaria insularis and Broadleaves namely IAQGR=Ipomoea grandifolia, EPHHL=Euphorbia heterophylla, COMBE=Commelina benghalensis. Data were collected at various period after application of the composition to the soil and calculated.

Commelina benghalensis = test: Field trial of triple mixes of amicarbazone, pre-emergence weed control; type: in vivo; conditions: dose g ai/ha: Amicarbazone 75, Mesotrione 38, Ametryn 250, mix AMC + AME + MST 75 + 38 + 250
Method: as §1, §2

| SMILES | % Control (Eleusine indica; Post-Emergence, 14 DAA) | % Control (Eleusine indica; Post-Emergence, 21 DAA) | % Control (Eleusine indica; Post-Emergence, 28 DAA) | % Control (Eleusine indica; Pre-Emergence, 14 DAA) | % Control (Eleusine indica; Pre-Emergence, 21 DAA) | % Control (Eleusine indica; Pre-Emergence, 28 DAA) | % Control (Commelina benghalensis; Table 11, 21 DAA) | % Control (Commelina benghalensis; Table 11, 28 DAA) | % Control (Commelina benghalensis; Table 11, 35 DAA) |
| --- | --- | --- | --- | --- | --- | --- | --- | --- | --- |
| CS(=O)(=O)c1ccc(C(=O)C2C(=O)CCCC2=O)c([N+](=O)[O-])c1 [Mesotrione] | 57.5% | 43.8% | 35.0% | 26.3% | 2.5% | 0.0% | 67.5% | 65.0% | 51.3% |
| CCNc1nc(NC(C)C)nc(SC)n1 [Ametryn] | 53.8% | 27.5% | 22.5% | 51.3% | 42.5% | 35.0% | 15.0% | 8.8% | 2.5% |
